Test results as given in patent publication US20250114313A1, “OLIGO-BENZAMIDE ANALOGS AND THEIR USE IN CANCER TREATMENT” (BOARD OF REGENTS, THE UNIVERSITY OF TEXAS SYSTEM, priority 2022, published 2025).

Experiments:
[1] = Evaluation of normal organs of treated mice (H&E, IHC, flow cytometry, ELISpot); type: in vivo
Experimental: Immunohistochemistry: Immunohistochemical studies were performed as described previously.^7 For the immunohistochemical studies, tissue sections were blocked in background sniper (Biocare Medical, RS966L) followed by overnight incubation with primary antibodies anti-Ki-67 antibody (1:1000, GeneTex cat #GTX16667 RRID:AB_422351) (link), anti-CHOP antibody (1:2000, Sigma, Cat #HPA068416), anti-PERK (phospho T982) antibody (1:150, Abcam Cat #ab192591, RRID:AB_2728666) link)), anti-phospho-eIF2α (Ser51) (1:50, Cell signaling, cs3398) and subsequent secondary antibody incubation for 60 min at room temperature. Immunoreactivity was visualized by using the DAB substrate and counterstained with hematoxylin (Vector Lab, Inc.). Percent of Ki67 positive proliferating cells was calculated in five randomly selected high-power fields (×40).
ELISpot. For ELISpot analysis of total IgM^+ and IgG^+ ASCs, Multi-Screen® filter plates (Millipore) were activated with 35% ethanol, washed with PBS, and coated with anti-IgM (SouthernBiotech, Cat. #1020-01) or anti-IgG (SouthernBiotech, Cat. #1030-01) in PBS. Single bone marrow cell suspensions were prepared, as above, and cultured at 250,000 cells/ml in RPMI 1640 medium (Invitrogen) supplemented with FBS (10% v/v, Invitrogen), penicillin-streptomycin/amphotericin B (1% v/v) and 50 μM β-mercaptoethanol (RPMI-FBS) at 37° C. for 16 h. After supernatants were removed, plates were incubated with biotinylated goat anti-mouse IgM (SouthernBiotech, Cat. #1020-08) or goat anti-mouse IgG1 (SouthernBiotech, Cat. #1070-08) Ab for 2 h and, after washing, incubated with HRP-conjugated streptavidin. Plates were developed using the Vectastain AEC peroxidase substrate kit (Vector Laboratories). The stained area in each well was quantified using the CTL ImmunoSpot software (Cellular Technology) and depicted as the number of spots for quantification
Flow cytometry: Single cell suspensions were flushed from tibia and fibula using sterile DPBS using a 10 ml syringe and 30 G needle. Red blood cells were removed by incubation with ACK lysis buffer (Lonzo) for 2 m. Bone marrow cells (2×10^6) were first stained in Hank's Buffered Salt Solution plus 0.1% BSA (HBSS-BSA) for 20 m with fixable viability dye (FVD, eFluor™ 506, eBioscience™, Cat. #50-246-097) and fluorophore-labeled mAbs to surface markers, including CD3 (APC-Cy7, Clone 17A2, BioLegend, Cat. #100221), IgD (FITC, Clone 11-26c.2a, BioLegend, Cat. #405704), CD138 (PE-Cy7, Clone 281-2, BioLegend, Cat. #142514), SCA-1 (PerCP, Clone D7, BioLegend, Cat. #108121), B220 (BV421, Clone RA3-6B2, BioLegend, Cat. #103240), in the presence of mAb Clone 2.4G2, which blocks FcγII and FcγIII receptors. After washing, cells were then fixed and permeablized by incubation for 1 h in 250 μl BD Cytofix/Cytoperm™ buffer (BD Fixation/Permeablization Kit, Cat. #554714) at 4° C. After washing twice with the BD Perm/Wash™ buffer, cells were counted again and 10^6 cells were resuspended in 100 μl of BD Cytofix/Cytoperm™ buffer for intracellular staining with anti-Igκ mAb (PE, e-Bioscience™, Clone 1871, Cat. #MKAPPA04) for 30 m. After washing with BD Perm/Wash™ buffer, cells were analyzed by LSRII (BD). FACS data were analyzed by the FlowJo® software (BD).
Animal Studies: All animal experiments were performed using UTHSA and UTSW IACUC approved protocols. For cell based xenograft tumor assays, TNBC cells (2×10^5-2×10^6) were mixed with an equal volume of matrigel and implanted in the mammary fat pads of 6-week-old female athymic nude mice as described^33. BALB/c mice were used for D2A1 syngeneic model. Once tumors reached measurable size, mice were divided into control (vehicle) and ERX-41 (10 mg/kg/oral) treatment groups. Mice bearing TNBC PDX tumors were purchased from Jackson laboratory (TM00089; TM00096; TM00098). TNBC PDX line UTPDX0001 establishment was earlier described^38. WHIM-20 ER+PDX model was purchased from Horizon Labs. OCa-PDX-38 was received from UTHSA ObGyn tissue procurement core. […]

LAL = assay: Biotinylated compound pull down of LAL from SUM-159 lysates; type: binding, Human
Experimental: The lysate was incubated with biotinylated-ERX-11 or biotinylated-ERX-41 overnight, followed by one-hour incubation with M-270 streptavidin Dynabeads. After four times of washes with lysis buffer, samples were eluted by boiling in 2× Laemmli sample buffer. Bound proteins were resolved in SDS-PAGE followed by western blotting.

With CC(C)COc1cc(C(=O)Nc2ccc(C(=O)N[C@H]3CC[C@H](C)CC3)cc2OCC(C)C)ccc1NC(=O)c1ccc([N+](=O)[O-])c(OCCO)c1 [ERX-41] the “bone marrow plasma cell numbers, Ig κ expression, IgM or IgG ASCs” value ([1]; flow cytometry and ELISpot, 1 week oral 10 mg/kg/day) was “did not show any significant effects”, the “gross histology of organs, nude mice with MDA-MB-231 xenografts” value ([1]; heart, lung, spleen, liver, kidney, ovary, pancreas, 30 days oral 10 mg/kg/day) was “no significant changes in the gross histology of multiple organs” and the “histology of organs, syngeneic mice with D2A1 xenografts” value ([1]; multiple organs including spleen) was “no significant histologic changes or immune infiltrates”. The “ER stress in normal liver or kidney tissues” value ([1]; oral administration, data not shown) was “no significant induction of ER stress”, the “uterus: proliferation index (Ki67), endometrial cell height, ERα expression” value ([1]; oral, 10 mg/kg/day) was “did not affect the proliferation index” and the immunogenicity ([1]; syngeneic mice) was “not immunogenic”. The “pulldown of LIPA constructs” value (LAL; biotinylated ERX-41, WT, H274Y, ΔLXXLL, L242P) was “interaction between ERX-41 and proteins encoded by WT-LIPA and H274Y MT-LIPA but not ΔLXXLL MT-LIPA or L242P MT-LIPA” and the “binding to LAL in TNBC cells” value (LAL; biotinylated compound, streptavidin pull down) was “binds to LAL”.
